Experiment [1] has as its system control sera (pooled serum of ten healthy LUMC hospital workers; commercial negative donor pooled serum from the Dutch bloodbank). In kind it is binding, human. On the set-up: Binding of Control serum LUMC to linear peptides / Binding of Control serum Blood-bank to linear peptides / Binding of Control serum LUMC to looped peptides / Binding of Control Serum Blood-Bank to Looped peptides / Binding of Control serum LUMC to linear peptides of the protein M of SARS-CoV Urbani / Binding of Control serum Blood-bank to linear peptides of the protein M of SARS-CoV Urbani / Binding of Control serum LUMC to looped peptides of the protein M of SARS-CoV Urbani / Binding of Control Serum Blood-Bank to Looped peptides of the protein M of SARS-CoV Urbani: unit not given here.

In experiment [2] the test system is antibodies in sera from SARS patients (sera 1a, 1b, 2, 6, 37, 62, London, SARS-yellow, SARS-green). In kind it is binding, human. On the set-up: Binding of serum 6 to linear peptides of protein X1 of SARS-CoV Urbani / Binding of serum 37 to linear peptides of protein X1 of SARS-CoV Urbani / Binding of serum 6 to looped/cyclic peptide (PEPSCAN-ELISA) / Binding of serum 37 to looped/cyclic peptide (PEPSCAN-ELISA) / Binding of serum 37 to looped/cyclic peptides of protein X1 of SARS-CoV Urbani / Binding of serum 6 to linear peptides of protein X2 / Binding of serum 37 to linear peptides of protein X2 / Binding of serum 37 to looped/cyclic peptides of protein X2 of SARS-CoV Urbani / Binding of serum 6 to linear peptides of protein M of SARS-CoV Urbani / Binding of serum 37 to linear peptides of protein M of SARS-CoV Urbani / Binding of serum 6 to looped/cyclic peptides of protein M of SARS-CoV Urbani / Binding of serum 37 to looped/cyclic peptides of protein M of SARS-CoV Urbani / Binding of serum 6 to linear peptides of protein X3 of SARS-CoV Urbani / Binding of serum 37 to linear peptides of protein X3 of SARS-CoV Urbani / Binding of serum 37 to looped/cyclic peptides of protein X3 of SARS-CoV Urbani / Binding of serum 6 to linear peptides of protein X4 of SARS-CoV Urbani / Binding of serum 37 to linear peptides of protein X4 of SARS-CoV Urbani / Binding of serum 37 to looped/cyclic peptides of protein X4 of SARS-CoV Urbani / Binding of serum 6 to linear peptides of protein X5 of SARS-CoV Urbani / Binding of serum 37 to linear peptides of protein X5 of SARS-CoV Urbani / Binding of serum 37 to looped/cyclic peptides of protein X5 of SARS-CoV Urbani / Binding of serum 6 to linear peptides of protein N of SARS-CoV Urbani / Binding of serum 37 to linear peptides of protein N of SARS-CoV Urbani / Binding of serum 6 to linear peptide (PEPSCAN-ELISA) / Binding of serum 1a to looped/cyclic peptides of protein N of SARS-CoV Urbani / Binding of serum 1b to looped/cyclic peptides of protein N of SARS-CoV Urbani / Binding of serum 2 to looped/cyclic peptides of protein N of SARS-CoV Urbani / Binding of serum 6 to looped/cyclic peptides of protein N of SARS-CoV Urbani / Binding of serum 37 to looped/cyclic peptides of protein N of SARS-CoV Urbani / Binding of serum 62 to looped/cyclic peptides of protein N of SARS-CoV Urbani / Binding of serum London to looped/cyclic peptides of protein N of SARS-CoV Urbani / Binding of serum SARS-green to looped/cyclic peptides of protein N of SARS-CoV Urbani: unit not given here.

Experiment [3] concerns rabbit serum obtained by immunizing a rabbit with the SARS-CoV strain Frankfurt 1. In kind it is binding. On the set-up: Binding of a rabbit serum to linear peptides / Binding of a rabbit serum to looped peptides / Rabbit serum linear peptides / Rabbit serum looped peptides / Binding of a rabbit serum to linear peptides of protein N of SARS-CoV Urbani (Rabbit serum linear peptides) / Binding of a rabbit serum to looped/cyclic peptides of protein N of SARS-CoV Urbani (Rabbit serum looped peptides): unit not given here.

As for LSLHKLLQTLVLKML, in experiment [1], the “Binding of Control Serum Blood-Bank to Looped peptides” value turned out to be 0.6, the “Binding of Control serum Blood-bank to linear peptides” value was 0.5, the “Binding of Control serum LUMC to linear peptides” value is on record as 0.2 and the “Binding of Control serum LUMC to looped peptides” value was found to be 0.7. In experiment [2], the “Binding of serum 1a to linear peptides of protein X2” value was 0.7, the “Binding of serum 1a to looped/cyclic peptides of protein X2 of SARS-CoV Urbani” value was 0.5, the “Binding of serum 1b to linear peptides of protein X2” value turned out to be 0.4 and the “Binding of serum 1b to looped/cyclic peptides of protein X2 of SARS-CoV Urbani” value stood at 0.4. For the same sequence, in experiment [2], the “Binding of serum 2 to linear peptides of protein X2” value turned out to be 0.3, the “Binding of serum 2 to looped/cyclic peptides of protein X2 of SARS-CoV Urbani” value is 0.3, the “Binding of serum 6 to linear peptides of protein X2” value was 0.3 and the “Binding of serum 6 to looped/cyclic peptides of protein X2 of SARS-CoV Urbani” value amounted to 0.6. Besides, in experiment [2], the “Binding of serum 37 to linear peptides of protein X2” value is 0.4, the “Binding of serum 37 to looped/cyclic peptides of protein X2 of SARS-CoV Urbani” value amounted to 0.4, the “Binding of serum 62 to linear peptides of protein X2” value was found to be 0.5 and the “Binding of serum 62 to looped/cyclic peptides of protein X2 of SARS-CoV Urbani” value worked out at 0.6. For the same sequence, in experiment [2], the “Binding of serum London to linear peptides of protein X2” value is reported as 0.4, the “Binding of serum London to looped/cyclic peptides of protein X2 of SARS-CoV Urbani” value is given as 1.3, the “Binding of serum SARS-green to linear peptides of protein X2” value amounted to 0.4 and the “Binding of serum SARS-green to looped/cyclic peptides of protein X2 of SARS-CoV Urbani” value was found to be 0.2. Also, in experiment [2], the “Binding of serum SARS-yellow to linear peptides of protein X2” value was 0.2 and the “Binding of serum SARS-yellow to looped/cyclic peptides of protein X2 of SARS-CoV Urbani” value worked out at 0.6. For the same sequence, in experiment [3], the “Binding of a rabbit serum to linear peptides” value came out at 0.3 and the “Binding of a rabbit serum to looped peptides” value was found to be 0.5.

With LSYFVASFRLFARTR, in experiment [1], the “Binding of Control Serum Blood-Bank to Looped peptides of the protein M of SARS-CoV Urbani” value was 0.8, the “Binding of Control serum Blood-bank to linear peptides of the protein M of SARS-CoV Urbani” value stood at 0.6, the “Binding of Control serum LUMC to linear peptides of the protein M of SARS-CoV Urbani” value was found to be 0.3 and the “Binding of Control serum LUMC to looped peptides of the protein M of SARS-CoV Urbani” value is listed as 1.0. Besides, in experiment [2], the “Binding of serum 1a to linear peptides of protein M of SARS-CoV Urbani” value is 0.7, the “Binding of serum 1b to linear peptides of protein M of SARS-CoV Urbani” value came to 0.4, the “Binding of serum 2 to linear peptides of protein M of SARS-CoV Urbani” value amounted to 0.4 and the “Binding of serum 6 to linear peptides of protein M of SARS-CoV Urbani” value stood at 0.4. In experiment [2], the “Binding of serum 37 to linear peptides of protein M of SARS-CoV Urbani” value is listed as 0.6, the “Binding of serum 62 to linear peptides of protein M of SARS-CoV Urbani” value was 0.7, the “Binding of serum London to linear peptides of protein M of SARS-CoV Urbani” value is recorded as 0.3 and the “Binding of serum SARS-green to linear peptides of protein M of SARS-CoV Urbani” value amounted to 0.2. Besides, in experiment [2], the “Binding of serum SARS-yellow to linear peptides of protein M of SARS-CoV Urbani” value was determined as 0.1; the “Recognition of the peptide by sera of SARS-CoV infected individuals, and form (linear, looped/cyclic) in which it is recognized” value is reported as “recognized in looped/cyclic form”. Moreover, in experiment [3], the “Rabbit serum linear peptides” value was found to be 0.4 and the “Rabbit serum looped peptides” value is 0.6.

As to LTCTSTHFAFACADG, in experiment [1], the “Binding of Control Serum Blood-Bank to Looped peptides” value is reported as 0.7, the “Binding of Control serum Blood-bank to linear peptides” value turned out to be 0.8, the “Binding of Control serum LUMC to linear peptides” value is on record as 0.8 and the “Binding of Control serum LUMC to looped peptides” value came to 0.6. Besides, in experiment [2], the “Binding of serum 1a to linear peptides of protein X4 of SARS-CoV Urbani” value came to 0.8, the “Binding of serum 1a to looped/cyclic peptides of protein X4 of SARS-CoV Urbani” value amounted to 0.6, the “Binding of serum 1b to linear peptides of protein X4 of SARS-CoV Urbani” value is on record as 0.8 and the “Binding of serum 1b to looped/cyclic peptides of protein X4 of SARS-CoV Urbani” value is given as 0.3. For the same sequence, in experiment [2], the “Binding of serum 2 to linear peptides of protein X4 of SARS-CoV Urbani” value amounted to 0.5, the “Binding of serum 2 to looped/cyclic peptides of protein X4 of SARS-CoV Urbani” value is 0.6, the “Binding of serum 6 to linear peptides of protein X4 of SARS-CoV Urbani” value is 0.6 and the “Binding of serum 6 to looped/cyclic peptides of protein X4 of SARS-CoV Urbani” value stood at 0.5. Further, in experiment [2], the “Binding of serum 37 to linear peptides of protein X4 of SARS-CoV Urbani” value is 0.8, the “Binding of serum 37 to looped/cyclic peptides of protein X4 of SARS-CoV Urbani” value is recorded as 0.5, the “Binding of serum 62 to linear peptides of protein X4 of SARS-CoV Urbani” value is on record as 0.8 and the “Binding of serum 62 to looped/cyclic peptides of protein X4 of SARS-CoV Urbani” value is given as 0.6. In experiment [2], the “Binding of serum London to linear peptides of protein X4 of SARS-CoV Urbani” value was determined as 0.8, the “Binding of serum London to looped/cyclic peptides of protein X4 of SARS-CoV Urbani” value is 0.3, the “Binding of serum SARS-green to linear peptides of protein X4 of SARS-CoV Urbani” value was 0.8 and the “Binding of serum SARS-green to looped/cyclic peptides of protein X4 of SARS-CoV Urbani” value is on record as 0.4. In addition, in experiment [2], the “Binding of serum SARS-yellow to linear peptides of protein X4 of SARS-CoV Urbani” value came to 0.5 and the “Binding of serum SARS-yellow to looped/cyclic peptides of protein X4 of SARS-CoV Urbani” value is listed as 0.4. Further, in experiment [3], the “Rabbit serum linear peptides” value is 0.5 and the “Rabbit serum looped peptides” value was 0.3.

On to LTLIVFTSCELYHYQ, for which, in experiment [1], the “Binding of Control Serum Blood-Bank to Looped peptides” value is given as 0.7, the “Binding of Control serum Blood-bank to linear peptides” value stood at 0.7, the “Binding of Control serum LUMC to linear peptides” value is on record as 0.7 and the “Binding of Control serum LUMC to looped peptides” value was 0.8. In addition, in experiment [2], the “Binding of serum 1a to linear peptides of protein X4 of SARS-CoV Urbani” value is reported as 0.7, the “Binding of serum 1a to looped/cyclic peptides of protein X4 of SARS-CoV Urbani” value came to 0.8, the “Binding of serum 1b to linear peptides of protein X4 of SARS-CoV Urbani” value was 0.6 and the “Binding of serum 1b to looped/cyclic peptides of protein X4 of SARS-CoV Urbani” value was found to be 0.7. For the same sequence, in experiment [2], the “Binding of serum 2 to linear peptides of protein X4 of SARS-CoV Urbani” value is reported as 0.5, the “Binding of serum 2 to looped/cyclic peptides of protein X4 of SARS-CoV Urbani” value turned out to be 0.7, the “Binding of serum 6 to linear peptides of protein X4 of SARS-CoV Urbani” value is reported as 0.5 and the “Binding of serum 6 to looped/cyclic peptides of protein X4 of SARS-CoV Urbani” value is 0.5. Further, in experiment [2], the “Binding of serum 37 to linear peptides of protein X4 of SARS-CoV Urbani” value was 0.7, the “Binding of serum 37 to looped/cyclic peptides of protein X4 of SARS-CoV Urbani” value is on record as 0.7, the “Binding of serum 62 to linear peptides of protein X4 of SARS-CoV Urbani” value is listed as 0.8 and the “Binding of serum 62 to looped/cyclic peptides of protein X4 of SARS-CoV Urbani” value turned out to be 0.7. Moreover, in experiment [2], the “Binding of serum London to linear peptides of protein X4 of SARS-CoV Urbani” value came to 0.7, the “Binding of serum London to looped/cyclic peptides of protein X4 of SARS-CoV Urbani” value came out at 0.3, the “Binding of serum SARS-green to linear peptides of protein X4 of SARS-CoV Urbani” value was 0.7 and the “Binding of serum SARS-green to looped/cyclic peptides of protein X4 of SARS-CoV Urbani” value was 0.4. Moreover, in experiment [2], the “Binding of serum SARS-yellow to linear peptides of protein X4 of SARS-CoV Urbani” value is given as 0.4 and the “Binding of serum SARS-yellow to looped/cyclic peptides of protein X4 of SARS-CoV Urbani” value is listed as 0.7. Besides, in experiment [3], the “Rabbit serum linear peptides” value is listed as 0.5 and the “Rabbit serum looped peptides” value turned out to be 0.3.

(Values after patent US20070128217A1 (priority 2003, published 2007).)
